The source of these data is patent US20120020946A1, “Methods for Inactivating Viruses” (priority 2009, published 2012).

The test system of series [1] is RD cell line (human rhabdomyosarcoma).
In series [2] the test system is Poliovirus Sabin (Type 2H.010704). It counts as cell-based.

Take `OCl` [Hypochlorite, Sodium hypochlorite]: in series [1], the “cytotoxicity score, no virus added” value is on record as “N”. Moreover, in series [2], the “infectivity score, virus added” value is given as “N”.
